According to patent US20120010241A1, “HSP90 INHIBITING INDAZOLE DERIVATIVES, COMPOSITIONS CONTAINING SAME AND USE THEREOF” (SANOFI, priority 2009, published 2012):
pIC50: −log10 of the molar value.

Legend:
[1] = tested on: Her2 expression in SKBr3 cells; experiment: phenotypic SKBr3/HER2 cell test (Her2 expression at the cell surface, flow cytometry); format: cell-based; details: Homo sapiens, SK-BR-3, incubation for 24 h, anti-Her2 antibody coupled to PE, FACS
Protocol: The cellular activity of the compounds can in particular be evaluated by means of the phenotypic “SKBr3/HER2” cell test described below:
The SKBr3 […] adenocarcinoma cells, overexpressing the Her2 tyrosine kinase receptor, originate from the ATCC (HTB-30) and are cultured in McCoy's 5A medium supplemented with 10% FBS and 1% L-glutamine.
The cells are seeded in 12-well plates at a proportion of 125 000 cells per well in 1 ml of complete medium. The following day, the products are added at varying concentrations. After incubation for 24 h, the cells are trypsinized, washed with PBS and incubated with 100 ng of anti-Her2 antibody coupled to PE (phycoerythrin) (BD 340552) for 30 minutes at 4° C. in the dark. The fluorescence due to the expression of the Her2 receptor at the surface of the cells is then read using a FACS Calibur flow cytometer (Becton-Dickinson). The percentage inhibition of Her2 expression as a function of the concentrations of product tested is fitted by the nonlinear regression technique (XLfit, equation 205) in order to measure the IC50 for each product.

[2] = biological target: Hsp82 (Saccharomyces cerevisiae, UniProt P02829); experiment: Hsp82/ATPase test (PK/LDH coupled spectrophotometric method; malachite green method also described); format: biochemical; details: 1 μM Hsp82, 250 μM ATP, 37° C., absorbance at 340 nm
Sequence of Hsp82 (P02829 whole entry): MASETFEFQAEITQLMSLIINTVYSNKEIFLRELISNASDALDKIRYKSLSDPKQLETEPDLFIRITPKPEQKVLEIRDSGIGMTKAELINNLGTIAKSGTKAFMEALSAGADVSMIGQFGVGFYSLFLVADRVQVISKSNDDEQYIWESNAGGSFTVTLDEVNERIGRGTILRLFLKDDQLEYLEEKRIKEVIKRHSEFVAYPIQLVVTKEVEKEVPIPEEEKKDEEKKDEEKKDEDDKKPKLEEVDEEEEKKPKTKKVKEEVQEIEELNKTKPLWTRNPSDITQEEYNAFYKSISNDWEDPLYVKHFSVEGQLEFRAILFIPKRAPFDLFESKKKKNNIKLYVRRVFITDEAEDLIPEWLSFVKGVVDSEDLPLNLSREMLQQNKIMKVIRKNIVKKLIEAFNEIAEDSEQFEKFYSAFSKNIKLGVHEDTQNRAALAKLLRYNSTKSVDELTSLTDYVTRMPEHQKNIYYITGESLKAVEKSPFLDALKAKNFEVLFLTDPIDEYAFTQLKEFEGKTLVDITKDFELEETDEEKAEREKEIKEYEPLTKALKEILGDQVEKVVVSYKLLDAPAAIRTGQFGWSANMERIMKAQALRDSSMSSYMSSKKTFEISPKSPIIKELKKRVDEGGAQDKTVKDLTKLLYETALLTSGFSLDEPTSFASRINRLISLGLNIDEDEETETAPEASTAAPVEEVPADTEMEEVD
Protocol: The biochemical activity of the compounds can in particular be evaluated by means of the “Hsp82/ATPase” test described below:
The inorganic phosphate released during the hydrolysis of ATP by the ATPase activity of Hsp82 is quantified by the malachite green method. In the presence of this reagent, formation of the inorganic phosphate-molybdate-malachite green complex, which absorbs at a wavelength of 620 nm, occurs.
The products to be evaluated are incubated in a reaction volume of 30 μl, in the presence of 1 μM Hsp82 and of 250 μM of substrate (ATP) in a buffer composed of 50 mM Hepes-NaOH (pH 7.5), 1 mM DTT, 5 mM MgCl2 and 50 mM KCl at 37° C. for 60 min. In parallel, an inorganic phosphate range of between 1 and 40 μM is made up in the same buffer. […] The inorganic phosphate concentration of each sample is then calculated from the standard curve. The ATPase activity of Hsp82 is expressed as concentration of inorganic phosphate produced in 60 minutes. The effect of the various products tested is expressed as percentage inhibition of the ATPase activity.
The formation of ADP due to the ATPase activity of Hsp82 was used to develop another method for evaluating the enzyme activity of this enzyme by application of an enzymatic coupling system involving pyruvate kinase (PK) and lactate dehydrogenase (LDH). In this kinetic-type spectrophotometric method, PK catalyses the formation of ATP and of pyruvate from phosphoenol pyruvate (PEP) and the ADP produced by Hsp82. The pyruvate formed, which is a substrate for LDH, is subsequently converted to lactate in the presence of NADH. In this case, the decrease in the NADH concentration, measured through the decrease in absorbance at the wavelength of 340 nm, is proportional to the concentration of ADP produced by Hsp82.
The products tested are incubated in a reaction volume of 100 μl of buffer composed of 100 mM Hepes-NaOH (pH 7.5), 5 mM MgCl2, 1 mM DTT, 150 mM KCl, 0.3 mM NADH, 2.5 mM PEP and 250 μM ATP. This mixture is preincubated at 37° C. for 30 minutes before the addition of 3.77 units of LDH and 3.77 units of PK. The reaction is initiated by addition of the product to be evaluated, in varying concentrations, and of Hsp82, at the concentration of 1 μM. The enzymatic activity of Hsp82 is then measured continuously, in a microplate reader, at 37° C., at the wavelength of 340 nm. The initial rate of the reaction is obtained by measuring the slope of the tangent to the origin of the curve recorded. The enzymatic activity is expressed in μM of ADP formed per minute. The effect of the various products tested is expressed as 50% inhibitory concentration (1050) with respect to the ATPase activity, according to the codification below: […]

| pIC50 [1] | melting point [°C] | pIC50 [2] | SMILES |
| --- | --- | --- | --- |
| > 6.00 | 170 to 172 |  | Cc1nn(-c2ccc(C(N)=O)c(NC3CC4CCC3O4)c2)c2cccc(-c3cnc4ccccc4c3)c12 (stereo not drawn) [Example 14, 4-(3-methyl-4-quinolin-3-ylindazol-1-yl)-2-[exo-(7-oxabicyclo[2.2.1]hept-2-yl)amino]benzamide] |
| 5.00 to 6.00 |  | > 6.00 | Cc1nn(-c2cnc(C(N)=O)c(NCCc3ccccn3)c2)c2cccc(-c3cnc4ccccc4c3)c12 [Example 18, 5-[3-methyl-4-quinolin-3-ylindazol-1-yl]-3-[2-pyridin-2-ylethylamino]pyridine-2-carboxamide] |
